Source: US12018303B2, “Method for preparing amines from carbonyl compounds by transaminase reaction under salt precipitation” (ENZYMICALS AG, priority 2017, dated 2024)
Read-outs that look alike come from different tables or passages of the source.

Tests used:
[1] = system: amine transaminases AfATA, GzATA, NfATA, AoATA, AtATA, MvATA, SpATA; assay type: biochemical
[2] = donor amine salt
[3] = Stability of salt solutions observed in the screening; assay type: physicochemical; conditions: certain salt solutions; strong discoloration
Text: The results of table 3 show clearly that certain acids allow significant differences in solubility between investigated salts. In this screening especially differences between product amines and the commonly used donor amines isopropylamine/alanine were targeted. Based on this consideration the following acids appear most applicable: 34CA, 34NA, 43CNA and 3DPPA. In addition, 2DPPA was identified as suitable acid. Acids with less strong differences are PCPA, 24CNA, 25CNA, 35DNOT, 3NA and 435CNBA, which might be useful for other product amines.

In the case of `O=C(O)CC(c1ccccc1)c1ccccc1` [Compound 3DPPA, 3,3-diphenylpropionic acid], the “inhibition of amine transaminases” value [1] is reported as “does not significantly inhibit”.

`CC(C)N.O=C(O)c1ccc(Cl)c([N+](=O)[O-])c1` [Compound 5, isopropylamine salt of 4-chloro-3-nitrobenzoic acid (43CNA)] gave a solubility [2] of 993.

For `O=C(O)c1ccc(Cl)c([N+](=O)[O-])c1` [Compound 43CNA, 4-chloro-3-nitro-benzoic acid], the “inhibition of amine transaminases” value ([1]; pH 7.5) was “strongly inhibited”.

With `O=C(O)C(c1ccccc1)c1ccccc1` [DPAA, diphenylacetic acid] the “inhibition of amine transaminases” value ([1]; pH 7.5) was “strongly inhibited”.

With `O=C(O)C1(c2ccccc2)CCCC1` [PCPA, 1-Phenylcyclo-pentane-carboxylic acid] the “stability of salt solutions” value [3] was “unknown decomposition reaction”.
